Results: patent publication US8912329B2 (priority 2009, dated 2014)

Molecular target: EthR-VP16 (Mycobacterium bovis, UniProt Q7TVI1)
Assay: cell-based
Set-up: species or system M. bovis
Settings: 48 h, read-out: % EthR activity (w/o = 100%); ± std. dev. of the mean (n = 3)

Chain of EthR-VP16 (Q7TVI1 whole entry, looked up): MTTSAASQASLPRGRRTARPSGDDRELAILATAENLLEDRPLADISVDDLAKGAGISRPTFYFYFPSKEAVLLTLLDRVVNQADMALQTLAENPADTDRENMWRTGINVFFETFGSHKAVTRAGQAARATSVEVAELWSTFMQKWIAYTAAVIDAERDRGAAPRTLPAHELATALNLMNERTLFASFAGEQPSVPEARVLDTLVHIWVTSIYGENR

Row | SMILES | remaining activity at 0.5 µM [%] | remaining activity at 1.5 µM [%] | remaining activity at 3 µM [%] | remaining activity at 6 µM [%] | remaining activity at 15 µM [%] | remaining activity at 30 µM [%] | remaining activity at 60 µM [%] | remaining activity at 300 µM [%]
1 | CC(C)(C)CC(=O)N1CCOC(c2ccccc2)C1 (stereo not drawn) [Example 20, 3,3-Dimethyl-1-(2-phenylmorpholin-4-yl)butan-1-one] | 96.6 ± 11.1 | 90.9 ± 14 | 88.2 ± 8.63 | 89 ± 4.56 | 75.5 ± 6.63 | 43.7 ± 3.21 | 33 ± 6.41 | 35.5 ± 1.37
2 | CCCCC(=O)N1CCOC(c2ccccc2)C1 (stereo not drawn) [Example 30, 1-(2-Phenylmorpholin-4-yl)pentan-1-one] | 112 ± 16.1 | 111 ± 17.1 | 101 ± 5.87 | 90.5 ± 5.55 | 69.2 ± 8.71 | 43.3 ± 2.01 | 26.9 ± 2.34 | 14.9 ± 3
3 | O=C(CCCc1ccccc1)N1CC(Cc2ccccc2)C1 [Example 27, 1-(3-Benzylazetidin-1-yl)-4-phenylbutan-1-on] | 59.6 ± 2.49 | 42.6 ± 1.49 | 37.9 ± 5.47 | 31.3 ± 3.58 | 31.7 ± 1.36 | 26.3 ± 9.65 | 17.5 ± 4.51 | 15.3 ± 2.79
4 | O=C(CCc1ccccc1)N1CCOC(c2ccccc2)C1 (stereo not drawn) [Example 21, 3-Phenyl-1-(2-phenylmorpholin-4-yl)propan-1-one] | 108 ± 7.36 | 98.5 ± 16.4 | 73.5 ± 7.58 | 60.2 ± 8.98 | 40.8 ± 4.81 | 8.33 ± 5.61 | 6.29 ± 1.05 | 1.34 ± 1.58
5 | O=C(Cc1cccs1)N1CCOC(c2ccccc2)C1 (stereo not drawn) [Example 14, 1-(2-Phenylmorpholin-4-yl)-2-(thiophen-2-yl)ethan-1-one] | 106 ± 19.8 | 86.2 ± 1.36 | 85.9 ± 6.26 | 74.8 ± 1.22 | 60.5 ± 1.32 | 35.4 ± 5.3 | 25.5 ± 3.82 | 9.16 ± 1.37
6 | O=C(CCCc1ccccc1)N1CCC1c1ccccc1 (stereo not drawn) [Example 23, 4-Phenyl-1-(2-phenylazetidin-1-yl)butan-1-one] | 96.3 ± 10 | 102 ± 12.3 | 101 ± 9.55 | 90.1 ± 9.21 | 86.8 ± 5.76 | 81.5 ± 5.22 | 49.4 ± 1.49 | 6.18 ± 2.53
7 | O=C(CCc1ccccc1)N1CCC1c1ccccc1 (stereo not drawn) [Example 22, 3-Phenyl-1-(2-phenylazetidin-1-yl)propan-1-one] | 90 ± 15.2 | 106 ± 10 | 97.4 ± 5.01 | 90.2 ± 8.48 | 77.8 ± 4.33 | 59.4 ± 4.5 | 33.2 ± 2.46 | 6.34 ± 0.89
8 | CCCCCC(=O)N1CCN(Cc2ccccc2)CC1 [Example 29, 1-(4-Benzylpiperazin-1-yl)hexan-1-one] | 85.4 ± 9.96 | 56 ± 5.54 | 36.5 ± 3.17 | 26.5 ± 0.73 | 16.9 ± 0.73 | 16.7 ± 3.59 | 10 ± 2.93 | 12.9 ± 4.6
9 | CCCC(=O)N1CCN(Cc2ccccc2)CC1 [Example 1, 1-(4-Benzylpiperazin-1-yl)butan-1-one] | 72.5 ± 1.65 | 76.5 ± 17.5 | 68.7 ± 2.79 | 73.2 ± 1.19 | 72.6 ± 6.82 | 64.1 ± 14 | 53.1 ± 7.78 | 27.3 ± 5.27
10 | CCCC(=O)N1CCOC(c2ccccc2)C1 (stereo not drawn) [Example 3, 1-(2-Phenylmorpholino)butan-1-one] | 85.5 ± 2.57 | 96.82 ± 0.67 | 84.4 ± 6.37 | 90.1 ± 6.44 | 98.4 ± 4.51 | 86.5 ± 4.1 | 81.9 ± 8.6 | 40.2 ± 4.65
11 | O=C(CCc1ccco1)N1CCN(Cc2ccccc2)CC1 [Example 18, 1-(4-Benzylpiperazin-1-yl)-3-(furan-2-yl)propan-1-one] | 91.9 ± 3.57 | 80.7 ± 8.89 | 81.4 ± 15.9 | 59.3 ± 1.2 | 44.2 ± 2.35 | 11.2 ± 1.68 | 12.4 ± 1.85 | 1.74 ± 0.26
12 | CCCCCC(=O)N1CCOC(c2ccccc2)C1 (stereo not drawn) [Example 31, 1-(2-Phenylmorpholin-4-yl)hexan-1-one] | 106 ± 17.5 | 103 ± 16.4 | 94.1 ± 15.9 | 63.7 ± 5.26 | 33.2 ± 1.27 | 25 ± 4.22 | 17.8 ± 4.01 | 15 ± 2.11
13 | CC(C)CC(=O)N1CCOC(c2ccccc2)C1 (stereo not drawn) [Example 19, 3-Methyl-1-(2-phenylmorpholin-4-yl)butan-1-one] | 95.6 ± 9.07 | 102 ± 4.13 | 95.9 ± 9.02 | 96.4 ± 13.5 | 76 ± 6.56 | 35.2 ± 5.28 | 33.5 ± 5.96 | 27.6 ± 0.37
14 | CCCCCC(=O)N1CCC(c2ccccc2)C1 (stereo not drawn) [Example 33, 1-(3-Phenylpyrrolidin-1-yl)hexan-1-one] | 11.4 ± 3.47 | 14.9 ± 5.68 | 5.8 ± 2.33 | 3.83 ± 1.01 | 4.58 ± 1.34 | 5.01 ± 0.8 | 5.24 ± 2.58 | 2.78 ± 1.33
15 | CCCCC(=O)N1CCC(c2ccccc2)C1 (stereo not drawn) [Example 32, 1-(3-Phenylpyrrolidin-1-yl)pentan-1-one] | 12.5 ± 5.97 | 10.7 ± 2.55 | 10.4 ± 2.69 | 9.96 ± 3.44 | 5.65 ± 1.1 | 8.77 ± 1.57 | 8.89 ± 1.74 | 1.56 ± 0.8
16 | CCCCC(=O)N1CCN(Cc2ccccc2)CC1 [Example 28, 1-(4-Benzylpiperazin-1-yl)pentan-1-one] | 97.1 ± 9.36 | 81.5 ± 3.01 | 59.4 ± 4.9 | 46.2 ± 2.55 | 38.3 ± 2.21 | 18.5 ± 3.64 | 11.7 ± 2.77 | 10.2 ± 1.94
17 | O=C(CCc1ccccc1)N1CC(Cc2ccccc2)C1 [Example 25, 1-(3-Benzylazetidin-1-yl)-3-phenylpropan-1-one] | 86.8 ± 9.98 | 88.5 ± 8.12 | 69.5 ± 4.27 | 48 ± 5.86 | 28.7 ± 3.22 | 19.5 ± 0.89 | 14.2 ± 3.23 | 6.03 ± 2
18 | CCCC(=O)N1CCC(c2ccccc2)C1 (stereo not drawn) [Example 13, 1-(3-Phenylpyrrolidin-1-yl)butan-1-one] | 30.4 ± 3.98 | 17.7 ± 2.01 | 11 ± 2.88 | 10.9 ± 1.45 | 12.4 ± 0.99 | 14.5 ± 7.8 | 10.8 ± 1.34 | 12 ± 1.27
